From patent US8871777B2, “Phenylpyrimidone compounds, the pharmaceutical compositions, preparation methods and uses thereof” (Topharman Shanghai Co., Ltd., priority 2008, dated 2014) come the findings set out here.

The structures appear in SMILES notation.

For assay [1], the target named is T1, human blood platelet PDE5 (Homo sapiens, UniProt O76074).
T1 construct: obtained by suitably treating various tissues and separating the enzyme with FPLC; from tissue; host or cells: human blood platelets
As to the kind of experiment: PDE5 enzyme inhibition activity test (scintillation proximity). The assay is classed as biochemical. As to the method: (§1) More specifically, PDE5 and PDE3 were obtained from human blood platelet, and PDE6 was separated from bovine retina. Upon enzyme was separated out, the enzyme inhibition activity test would be carried out immediately. The said enzyme inhibition activity test was performed by directly detecting the scintillation proximity of AMP/GMP using TRKQ7100 and TRKQ7090 kits, which was generally as follows. In the presence of different concentrations of inhibitor and a small amount of substrate, 10 μl of buffer (50 mM Tris/HCl PH 7.5, 8.3 mM MgCl2, 1.7 mM EGTA) was added, and then water was added to a final volume of 100 μl. The reaction was initiated with a fixed amount of enzyme, incubated at 30° C. for 30 min, and then quenched with 50 μl of yttrium silicate beads comprising zinc sulphate. After shaken for 20 min, the reaction mixture was put in dark and settled for 30 min, and then readed on a BECKMAN LS6500 MULTI-PURPOSE SCINTILLATION COUNTER.

The next assay addresses T2, PDE6 in bovine retina (Bos taurus, UniProt P11541+P23439).
T2 construct: obtained by suitably treating various tissues and separating the enzyme with FPLC; from tissue; host or cells: bovine retina
T2 sequence (P11541 2-856 limits assumed): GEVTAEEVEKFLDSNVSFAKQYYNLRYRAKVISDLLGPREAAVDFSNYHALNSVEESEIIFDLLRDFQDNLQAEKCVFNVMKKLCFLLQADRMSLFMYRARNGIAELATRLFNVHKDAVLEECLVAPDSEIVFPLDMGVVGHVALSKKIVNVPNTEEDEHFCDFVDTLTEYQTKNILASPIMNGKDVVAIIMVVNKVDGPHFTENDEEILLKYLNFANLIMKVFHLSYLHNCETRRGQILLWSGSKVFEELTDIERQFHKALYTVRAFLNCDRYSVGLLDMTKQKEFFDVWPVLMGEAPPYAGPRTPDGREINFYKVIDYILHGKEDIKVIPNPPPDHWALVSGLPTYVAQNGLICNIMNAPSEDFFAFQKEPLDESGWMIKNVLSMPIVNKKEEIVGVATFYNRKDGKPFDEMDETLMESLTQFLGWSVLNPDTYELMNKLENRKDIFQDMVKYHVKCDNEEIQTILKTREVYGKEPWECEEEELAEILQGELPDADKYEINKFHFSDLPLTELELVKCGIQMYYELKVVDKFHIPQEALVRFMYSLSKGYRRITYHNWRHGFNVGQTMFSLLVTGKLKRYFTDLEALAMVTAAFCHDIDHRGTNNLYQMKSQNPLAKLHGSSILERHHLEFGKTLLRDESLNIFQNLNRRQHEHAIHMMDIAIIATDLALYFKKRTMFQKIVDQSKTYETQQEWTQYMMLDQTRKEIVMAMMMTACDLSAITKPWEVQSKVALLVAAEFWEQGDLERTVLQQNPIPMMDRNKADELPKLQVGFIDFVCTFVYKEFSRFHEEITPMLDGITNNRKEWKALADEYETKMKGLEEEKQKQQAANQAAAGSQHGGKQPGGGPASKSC
T2 sequence (P23439 2-850 limits assumed): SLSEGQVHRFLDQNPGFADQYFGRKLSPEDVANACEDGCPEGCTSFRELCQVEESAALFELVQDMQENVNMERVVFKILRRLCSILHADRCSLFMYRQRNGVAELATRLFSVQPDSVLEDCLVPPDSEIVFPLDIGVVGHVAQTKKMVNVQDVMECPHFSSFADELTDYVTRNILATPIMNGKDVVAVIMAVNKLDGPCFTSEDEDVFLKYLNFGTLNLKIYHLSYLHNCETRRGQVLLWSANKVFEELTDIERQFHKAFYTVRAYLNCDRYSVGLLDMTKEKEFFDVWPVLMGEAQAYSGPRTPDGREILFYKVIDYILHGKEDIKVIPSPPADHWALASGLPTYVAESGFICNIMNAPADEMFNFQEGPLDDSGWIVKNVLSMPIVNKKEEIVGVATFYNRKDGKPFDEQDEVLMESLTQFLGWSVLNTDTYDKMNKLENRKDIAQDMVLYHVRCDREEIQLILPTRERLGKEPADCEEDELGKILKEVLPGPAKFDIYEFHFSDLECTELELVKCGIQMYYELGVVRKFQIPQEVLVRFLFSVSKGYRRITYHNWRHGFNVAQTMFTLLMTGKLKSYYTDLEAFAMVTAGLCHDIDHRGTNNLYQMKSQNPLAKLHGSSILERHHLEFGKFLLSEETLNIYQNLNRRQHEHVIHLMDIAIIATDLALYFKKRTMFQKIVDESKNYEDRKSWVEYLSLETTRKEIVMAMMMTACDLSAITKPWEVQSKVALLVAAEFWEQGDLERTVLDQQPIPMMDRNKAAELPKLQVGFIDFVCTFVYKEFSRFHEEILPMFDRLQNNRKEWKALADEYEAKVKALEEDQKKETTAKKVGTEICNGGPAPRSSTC
The assay can be described thus: PDE6 enzyme inhibition activity test (scintillation proximity). The assay is classed as biochemical. As to conditions: for IC50: PDE6 separated from bovine retina, read-out: PDE6 IC50; for PDE6 IC50/PDE5 IC50: selectivity, ratio of IC50 PDE6/IC50 PDE5. The method, then: as §1

Take `CCCOc1ccc(C(=O)NCCS(=O)(=O)N(CC)CC)cc1-c1nc(CC)c(CC)c(=O)[nH]1` [Example 214, 3-(4,5-diethyl-1,6-dihydro-6-oxopyrimidin-2-yl)-N-(N,N-diethylaminosulfonylethyl)-4-n-propoxybenzamide]: the IC50 in assay [1] (PDE5 table) is 1.8 nM.
Turning to `CCCOc1ccc(C(=O)NCCS(=O)(=O)N2CCN(C)CC2)cc1-c1nc(CC)c(CC)c(=O)[nH]1` [Example 213, 3-(4,5-diethyl-1,6-dihydro-6-oxopyrimidin-2-yl)-N-(4-methyl-1-piperazinylsulfonylethyl)-4-n-propoxybenzamide], the IC50 in assay [1] (PDE5 table) turned out to be 2.8 nM.
Still for that read-out and setting: the value for `CCCOc1ccc(C2OC(CO)C(O)C(O)C2O)cc1-c1nc(CC)c(CC)c(=O)[nH]1` (stereo not drawn) [Example 218, 5,6-Diethyl-2-(5-(tetrahydro-3,4,5-trihydroxy-6-(hydroxymethyl)-2H-pyran-2-yl)-2-n-propoxyphenyl)pyrimid-4(3H)-one] was 8.63 nM.
Regarding `CCCOc1ccc(C(=O)N2CCOCC2)cc1-c1nc(CC)c(CC)c(=O)[nH]1` [Example 59, (Morpholin-1-yl)(3-(4,5-diethyl-1,6-dihydro-6-oxopyrimidin-2-yl)-4-n-propoxy)benzophenone], the IC50 amounted to 0.57 nM in assay [1] (PDE5 table), 0.57 nM in assay [1] (as repeated in the PDE6 table) and 7.88 nM on PDE6 in bovine retina. For the same compound, the “PDE6 IC50/PDE5 IC50” value at PDE6 in bovine retina is recorded as 13.7.
Consider `CCCOc1ccc(NS(C)(=O)=O)cc1-c1nc(CC)c(CC)c(=O)[nH]1` [Example 51, 5,6-Diethyl-2-(2-n-propoxy-5-mesylamidophenyl)pyrimid-4(3H)-one], for which the IC50 in assay [1] (PDE5 table) came out at 1.23 nM; in assay [1] (as repeated in the PDE6 table), 1.23 nM; at PDE6 in bovine retina it was 34.8 nM. Further, the “PDE6 IC50/PDE5 IC50” value on PDE6 in bovine retina stood at 28.3.
Compound `CCCOc1ccc(C(=O)NC2C(O)OC(CO)C(O)C2O)cc1-c1nc(CC)c(CC)c(=O)[nH]1` (stereo not drawn) [Example 211] showed an IC50 in assay [1] (PDE5 table) of 0.9 nM.
In the case of `CCCOc1ccc(S(=O)(=O)NC(CCCNC(N)=O)C(=O)O)cc1-c1nc(CC)c(CC)c(=O)[nH]1` (stereo not drawn) [Example 118, 2-(N-(3-(4,5-diethyl-1,6-dihydro-6-oxopyrimidin-2-y1)-4-n-propoxyphenyl)sulfonyl)amino-5-ureavaleric acid], in assay [1] (PDE5 table), the IC50 is 0.76 nM.
On the same count and under the same terms, next, `CCCOc1ccc(S(=O)(=O)NC(CCCN)C(=O)O)cc1-c1nc(CC)c(CC)c(=O)[nH]1` (stereo not drawn) [Example 119, 2-(N-(3-(4,5-diethyl-1,6-dihydro-6-oxopyrimidin-2-yl)-4-n-propoxyphenyl)sulfonyl)amino-5-aminovaleric acid]: 6.31 nM.
Turning to `CCCOc1ccc(C(=O)NC(C)C(=O)O)cc1-c1nc(CC)c(CC)c(=O)[nH]1` (stereo not drawn) [Example 145, 2-(3-(4,5-diethyl-1,6-dihydro-6-oxopyrimidin-2-yl)-4-n-propoxybenzamido)propionic acid], the IC50 came to 0.47 nM in assay [1] (PDE5 table), 0.47 nM in assay [1] (as repeated in the PDE6 table) and 24.2 nM on PDE6 in bovine retina. Also, at PDE6 in bovine retina, the “PDE6 IC50/PDE5 IC50” value turned out to be 51.5.
Consider `CCCOc1ccc(C(=O)NC(C)CO)cc1-c1nc(CC)c(CC)c(=O)[nH]1` (stereo not drawn) [Example 166, 3-(4,5-diethyl-1,6-dihydro-6-oxopyrimidin-2-yl)-N-(1-hydroxyprop-2-yl)-4-n-propoxybenzamide], for which the IC50 in assay [1] (PDE5 table) is 0.33 nM; in assay [1] (as repeated in the PDE6 table), 0.33 nM; at PDE6 in bovine retina it was 5.15 nM. Further, on PDE6 in bovine retina, the “PDE6 IC50/PDE5 IC50” value came out at 15.6.
In assay [1] (PDE5 table), `CCCOc1ccc(C(=O)NC(CCCN)C(=O)O)cc1-c1nc(CC)c(CC)c(=O)[nH]1` (stereo not drawn) [Example 210, 2-(3-(4,5-diethyl-1,6-dihydro-6-oxopyrimidin-2-yl)-4-n-propoxybenzamido)-5-aminovaleric acid] had an IC50 of 6.23 nM.
On the same count and under the same terms, the value for `CCCOc1ccc(C(=O)NCCCS(=O)(=O)N2CCN(C)CC2)cc1-c1nc(CC)c(CC)c(=O)[nH]1` [Example 216, 3-(4,5-diethyl-1,6-dihydro-6-oxopyrimidin-2-yl)-N-(4-methyl-1-piperazinylsulfonylpropyl)-4-n-propoxybenzamide] was 0.83 nM; that for `CCCOc1ccc(C(=O)NC(C)C(N)=O)cc1-c1nc(CC)c(CC)c(=O)[nH]1` (stereo not drawn) [Example 155, N-(1-aminoformylethyl)-3-(4,5-diethyl-1,6-dihydro-6-oxopyrimidin-2-yl)-4-n-propoxybenzamide] was 0.54 nM; that for `CCCOc1ccc(C(=O)NC(CCCNC(N)=O)C(=O)O)cc1-c1nc(CC)c(CC)c(=O)[nH]1` (stereo not drawn) [Example 209, 2-(3-(4,5-diethyl-1,6-dihydro-6-oxopyrimidin-2-yl)-4-n-propoxybenzamido)-5-ureavaleric acid] was 0.64 nM.
The compound `CCCOc1ccc(C(=O)NCCS(N)(=O)=O)cc1-c1nc(CC)c(CC)c(=O)[nH]1` [Example 212, 2-(3-(4,5-diethyl-1,6-dihydro-6-oxopyrimidin-2-yl)-4-n-propoxybenzamido)ethylsulphonamide] came in with an IC50 in assay [1] (PDE5 table) of 0.79 nM.
In the case of `CCCOc1ccc(S(=O)(=O)NC2C(O)OC(CO)C(O)C2O)cc1-c1nc(CC)c(CC)c(=O)[nH]1` (stereo not drawn) [Example 208, 5,6-Diethyl-2-(2-n-propoxy-5-((tetrahydro-2,4,5-trihydroxy-6-(hydroxymethyl)-2H-pyran-3-ylamino)sulfonyl)phenyl]pyrimid-4(3H)-one], 3.69 nM corresponded to half-maximal inhibition in assay [1] (PDE5 table) (IC50).
In the case of `CCCOc1ccc(C(=O)NC(CCCNC(=N)N)C(=O)O)cc1-c1nc(CC)c(CC)c(=O)[nH]1` (stereo not drawn) [Example 149, 2-(3-(4,5-diethyl-1,6-dihydro-6-oxopyrimidin-2-yl)-4-n-propoxybenzamido)-5-guanidylvaleric acid], the IC50 in assay [1] (PDE5 table) was determined as 1.8 nM.
On to `CCCOc1ccc(C(=O)NCCCS(N)(=O)=O)cc1-c1nc(CC)c(CC)c(=O)[nH]1` [Example 215, 3-(3-(4,5-diethyl-1,6-dihydro-6-oxopyrimidin-2-yl)-4-n-propoxybenzamido)propylsulphonamide], for which, in assay [1] (PDE5 table), it took 0.88 nM to reach half-maximal inhibition (IC50).
In the case of `CCCOc1ccc(NC(=O)CN2CCN(C)CC2)cc1-c1nc(CC)c(CC)c(=O)[nH]1` [Example 179, N-(3-(4,5-diethyl-1,6-dihydro-6-oxopyrimidin-2-yl)-4-n-propoxyphenyl)-2-(4-methylpiperazin-1-yl)acetamide], the 50% inhibitory concentration (IC50) on PDE6 in bovine retina is 22.2 nM.
In assay [1] (PDE5 table), `CCCOc1ccc(C(=O)NC(C)C(=O)OC)cc1-c1nc(CC)c(CC)c(=O)[nH]1` (stereo not drawn) [Example 151, methyl 2-(3-(4,5-diethyl-1,6-dihydro-6-oxopyrimidin-2-yl)-4-n-propoxybenzamido)propionate] displayed an IC50 of 0.54 nM.
Regarding `CCCOc1ccc(-c2nc(CC)c(CC)c(=O)[nH]2)cc1-c1nc(CC)c(CC)c(=O)[nH]1` [Example 87, 2,2′-(4-n-Propoxy-1,3-phenylene)bis(5,6-diethylpyrimid-4(3H)-one)], in assay [1] (PDE5 table), inhibition was half-maximal at 3.29 nM (IC50).
